Data on 50 compounds can be found in ChEMBL document CHEMBL1133899, “Amino acid derived sulfonamide hydroxamates as inhibitors of procollagen C-proteinase: solid-phase synthesis of ornithine analogues” (Bioorg Med Chem Lett, 2001).

Assay [1] has as its target T1, Bone morphogenetic protein 1 (Homo sapiens, UniProt P13497).
T1 sequence (P13497 whole entry): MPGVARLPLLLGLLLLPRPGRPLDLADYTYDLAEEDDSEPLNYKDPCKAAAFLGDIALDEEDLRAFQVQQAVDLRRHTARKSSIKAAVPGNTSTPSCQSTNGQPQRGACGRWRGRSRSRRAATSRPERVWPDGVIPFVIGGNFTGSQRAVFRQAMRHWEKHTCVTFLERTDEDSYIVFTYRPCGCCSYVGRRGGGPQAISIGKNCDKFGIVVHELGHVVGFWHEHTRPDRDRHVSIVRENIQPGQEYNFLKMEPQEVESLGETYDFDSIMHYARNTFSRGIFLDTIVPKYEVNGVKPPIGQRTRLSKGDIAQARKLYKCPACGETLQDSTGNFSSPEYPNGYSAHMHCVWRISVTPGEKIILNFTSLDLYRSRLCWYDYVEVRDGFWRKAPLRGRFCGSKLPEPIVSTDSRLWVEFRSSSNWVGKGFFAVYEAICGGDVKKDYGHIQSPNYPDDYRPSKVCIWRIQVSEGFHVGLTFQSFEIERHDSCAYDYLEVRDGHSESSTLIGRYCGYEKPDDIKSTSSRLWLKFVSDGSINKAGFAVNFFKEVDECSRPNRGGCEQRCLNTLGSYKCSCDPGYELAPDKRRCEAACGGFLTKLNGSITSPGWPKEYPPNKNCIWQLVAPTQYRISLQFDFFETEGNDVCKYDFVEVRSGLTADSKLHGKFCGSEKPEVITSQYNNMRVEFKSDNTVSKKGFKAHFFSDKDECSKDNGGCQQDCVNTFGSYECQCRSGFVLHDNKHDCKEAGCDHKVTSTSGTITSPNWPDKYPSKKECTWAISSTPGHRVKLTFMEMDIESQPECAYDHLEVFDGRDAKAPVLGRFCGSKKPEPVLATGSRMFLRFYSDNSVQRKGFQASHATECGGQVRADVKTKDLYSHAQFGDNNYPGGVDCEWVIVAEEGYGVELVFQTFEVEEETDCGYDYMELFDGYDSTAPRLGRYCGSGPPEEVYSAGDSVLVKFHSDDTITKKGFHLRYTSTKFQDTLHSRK
Briefly: Inhibitory activity against procollagen C-Proteinase (PCP).

Assay [2] concerns the target T1, Bone morphogenetic protein 1. Put plainly: The compound was evaluated for its inhibitory effect against Procollagen C-terminal proteinase.

One may read the IC50 as the concentration needed to halve the response being measured. Low readings indicate inhibition by little substance, high ones a need for much substance. In turn, `COc1ccc(S(=O)(=O)N(Cc2ccc3c(c2)OCO3)[C@H](CCCNC(=O)OCc2cccc([N+](=O)[O-])c2)C(=O)NO)cc1` registered an IC50 in assay [1] of 38 nM.
With `COc1ccc(S(=O)(=O)N(Cc2ccc3c(c2)OCO3)[C@H](CCCNC(=O)c2ccccc2)C(=O)NO)cc1`, the IC50 in assay [1] turned out to be 98 nM.
Same read-out and setting: the same measure for `C[C@@H](NC(=O)NCCC[C@@H](NS(=O)(=O)c1ccc(Cl)s1)C(=O)NO)c1ccccc1`: 9600 nM.
`COc1ccc(S(=O)(=O)N[C@@H](CCCNC(=O)NC2CCCCC2)C(=O)NO)cc1` showed an IC50 in assay [1] of 3600 nM.
`CCOC(=O)NCCC[C@H](C(=O)NO)N(Cc1ccc2c(c1)OCO2)S(=O)(=O)c1ccc(OC)cc1`: the IC50 in assay [1] is 220 nM.
The same measure, in the same setting: as for `COc1ccc(S(=O)(=O)N[C@@H](CCCNC(=O)Nc2ccccc2)C(=O)NO)cc1`, the figure is 6900 nM; as for `CCCNC(=O)NCCC[C@H](C(=O)NO)N(Cc1ccc2c(c1)OCO2)S(=O)(=O)c1ccc(OC)cc1`, 97 nM; as for `COc1cc(C)c(S(=O)(=O)N[C@H](CCCNC(=O)N[C@H](C)c2ccccc2)C(=O)NO)c(C)c1`, 23000 nM.
Same read-out and setting: as for `COc1ccc(S(=O)(=O)N[C@@H](CCCNC(=O)Nc2cccc(F)c2)C(=O)NO)cc1`, the figure is 4000 nM; as for `COC(=O)[C@@H](Cc1ccccc1)NC(=O)NCCC[C@H](NS(=O)(=O)c1ccc(OC)cc1)C(=O)NO`, 5900 nM.
Consider `COc1ccc(S(=O)(=O)N[C@H](CCCNC(=O)Nc2ccccc2C)C(=O)NO)cc1`, for which half-maximal inhibition in assay [1] (IC50) was put at 260 nM.
`COc1ccc(S(=O)(=O)N[C@H](CCCNC(=O)NC2CCCCC2)C(=O)NO)cc1`: the IC50 in assay [2] came to 230 nM.
The compound `COc1ccc(S(=O)(=O)N[C@H](CCC/N=C(\S)NC2CCCCC2)C(=O)NO)cc1` yielded an IC50 in assay [1] of 1700 nM.
Take `COc1ccc(S(=O)(=O)N[C@H](CCCNC(=O)Nc2cccc(F)c2)C(=O)NO)cc1`: half-maximal inhibition in assay [1] (IC50) required 160 nM.
As for `COc1ccc(S(=O)(=O)N(Cc2ccc3c(c2)OCO3)[C@H](CCCNC(=O)NCc2ccccc2)C(=O)NO)cc1`, the IC50 in assay [1] was found to be 58 nM.
As for `COc1ccc(S(=O)(=O)N[C@H](CCCNC(=O)Nc2ccccc2)C(=O)NO)cc1`, in assay [1], the IC50 came out at 55 nM.
In the case of `C[C@@H](NC(=O)NCCC[C@@H](NS(=O)(=O)c1ccc(S(=O)(=O)c2cccs2)cc1)C(=O)NO)c1ccccc1`, in assay [1], the IC50 worked out at 5000 nM.
As to `C[C@@H](NC(=O)NCCC[C@@H](NS(=O)(=O)c1ccc(Cl)cc1)C(=O)NO)c1ccccc1`, the IC50 in assay [1] is 910 nM.
On the same count and under the same terms, the same measure for `COc1ccc(S(=O)(=O)N[C@H](CCCNC(=O)C(C)C)C(=O)NO)cc1`: 1400 nM; for `COc1ccc(S(=O)(=O)N[C@H](CCCNC(=O)N[C@@H]2C[C@H]2c2ccccc2)C(=O)NO)cc1`: 170 nM; for `COc1ccc(S(=O)(=O)N[C@H](CCCNC(=S)NCc2ccccc2)C(=O)NO)cc1`: 990 nM.
As for `COc1ccc(S(=O)(=O)N[C@@H](CCCNC(=O)N[C@H](C)c2ccccc2)C(=O)NO)cc1`, the IC50 in assay [1] amounted to 2100 nM.
As to `COc1ccc(S(=O)(=O)N[C@@H](CCCNC(=O)NC2CC2c2ccccc2)C(=O)NO)cc1` (stereo partly specified), the IC50 in assay [1] worked out at 290 nM.
On to `COc1ccc(S(=O)(=O)N[C@@H](CCCNC(=O)NCCc2cccs2)C(=O)NO)cc1`, for which the IC50 in assay [1] is 5500 nM.
On the same count and under the same terms, as for `COc1ccc(S(=O)(=O)N(C)[C@H](CCCNC(=O)NC(C)c2ccccc2)C(=O)NO)cc1` (stereo partly specified), the figure is 2300 nM.
On to `COc1ccc(S(=O)(=O)N[C@H](CCCNC(=O)C2CC2)C(=O)NO)cc1`, for which the IC50 in assay [1] turned out to be 770 nM.
`COc1ccc(S(=O)(=O)N(Cc2ccc3c(c2)OCO3)[C@H](CCCNC(=O)NCc2cccc(C)c2)C(=O)NO)cc1` showed an IC50 in assay [1] of 50 nM.
`COc1ccc(S(=O)(=O)N(Cc2ccc3c(c2)OCO3)[C@H](CCCNC(=O)OCc2ccccc2Br)C(=O)NO)cc1` showed an IC50 in assay [1] of 24 nM.
In the case of `COc1ccc(S(=O)(=O)N[C@H](CCCNS(=O)(=O)c2ccccc2)C(=O)NO)cc1`, it took 3400 nM to reach half-maximal inhibition in assay [1] (IC50).
`COc1ccc(S(=O)(=O)N(Cc2ccc3c(c2)OCO3)[C@H](CCCNC(=O)OCc2ccc([N+](=O)[O-])cc2)C(=O)NO)cc1` displayed an IC50 in assay [1] of 45 nM.
In the case of `C[C@@H](NC(=O)NCCC[C@@H](NS(=O)(=O)c1ccccc1Cl)C(=O)NO)c1ccccc1`, inhibition in assay [1] was half-maximal at 2300 nM (IC50).
Consider `COc1ccc(S(=O)(=O)N[C@H](CCCNC(=O)N[C@H](C)c2cccc3ccccc23)C(=O)NO)cc1`, for which, in assay [1], the IC50 was 160 nM.
For `COc1ccc(S(=O)(=O)N[C@H](CCCNC(=O)OC(C)(C)C)C(=O)NO)cc1`, the IC50 in assay [1] worked out at 4500 nM.
The compound `COc1ccc(S(=O)(=O)N(Cc2ccc3c(c2)OCO3)[C@H](CCCNC(=O)OCC(C)C)C(=O)NO)cc1` displayed an IC50 in assay [1] of 45 nM.
`COc1ccc(S(=O)(=O)N[C@@H](CCCNC(=O)N[C@H](C)c2cccc3ccccc23)C(=O)NO)cc1` displayed an IC50 in assay [1] of 1600 nM.
Consider `C[C@@H](NC(=O)NCCC[C@@H](NS(=O)(=O)c1ccc(F)cc1Cl)C(=O)NO)c1ccccc1`, for which the IC50 in assay [1] came to 61000 nM.
`COc1ccc(S(=O)(=O)N[C@H](CCCNC(=O)C2CCCCC2)C(=O)NO)cc1` yielded an IC50 in assay [1] of 1600 nM.
As to `COc1ccc(S(=O)(=O)N(C)[C@H](CCCNC(=O)Nc2ccccc2Cl)C(=O)NO)cc1`, the IC50 in assay [1] was found to be 7200 nM.
Regarding `COc1ccc(S(=O)(=O)N(Cc2ccc3c(c2)OCO3)[C@H](CCCNC(=O)NCc2cccc3ccccc23)C(=O)NO)cc1`, half-maximal inhibition in assay [1] (IC50) was put at 120 nM.
`COC(=O)[C@@H](Cc1ccccc1)NC(=O)NCCC[C@@H](NS(=O)(=O)c1ccc(OC)cc1)C(=O)NO` displayed an IC50 in assay [1] of 140 nM.
Turning to `COc1ccc(S(=O)(=O)N(C)[C@H](CCCNC(=O)Nc2ccccc2)C(=O)NO)cc1`, it took 1600 nM to reach half-maximal inhibition in assay [1] (IC50).
On to `COc1ccc(S(=O)(=O)N[C@@H](CCCNC(=O)Nc2ccccc2Cl)C(=O)NO)cc1`, for which the midpoint of inhibition in assay [1], the IC50, lay at 7800 nM.
In the case of `COc1ccc(S(=O)(=O)N(Cc2ccc3c(c2)OCO3)[C@H](CCCNC(=O)OCc2ccccc2Cl)C(=O)NO)cc1`, the IC50 in assay [1] amounted to 3.9 nM.
`COc1ccc(S(=O)(=O)N(Cc2ccc3c(c2)OCO3)[C@H](CCCNC(=O)OCc2ccccc2)C(=O)NO)cc1`: the IC50 in assay [1] came to 9 nM.
`COc1ccc(S(=O)(=O)N[C@H](CCCNC(=O)N[C@H](C)c2ccccc2)C(=O)NO)cc1`: the IC50 in assay [2] and in assay [1] was 110 nM in each case.
Take `COc1ccc(S(=O)(=O)N(Cc2ccc3c(c2)OCO3)[C@H](CCCNC(=O)NCCc2ccccc2)C(=O)NO)cc1`: the IC50 in assay [1] stood at 50 nM.
Still for that read-out and setting: as for `COc1ccc(S(=O)(=O)N[C@H](CCCNC(=O)NCCc2cccs2)C(=O)NO)cc1`, the figure is 78 nM; as for `COc1ccc(S(=O)(=O)N(Cc2cccnc2)[C@@H](C(=O)NO)C(C)C)cc1` [CGS-27023A], 3000 nM; as for `COc1ccc(S(=O)(=O)N[C@H](CCCNC(=O)CCc2ccccc2)C(=O)NO)cc1`, 970 nM.
Take `COc1ccc(S(=O)(=O)N[C@H](CCCNC(=O)Nc2ccccc2Cl)C(=O)NO)cc1`: half-maximal inhibition in assay [1] (IC50) was put at 92 nM.
